The values that follow come from US20240199613A1 (TAKEDA PHARMACEUTICAL COMPANY LIMITED, priority 2021, published 2024).

Structures are written as SMILES.

The target in assay [1] is human activated kallikrein enzyme (Homo sapiens, UniProt P03952). As to the kind of experiment: Inhibition of activated plasma kallikrein, fluorogenic peptide substrate (PFR-AMC) assay, 500 pM enzyme format. It counts as biochemical. Particulars: 500 pM activated kallikrein, 300 uM PFR-AMC, 30 min preincubation, 10 min reaction, room temperature; read-out: Primary Dose Response Assay: Average EC50. Here is the method: Compounds were evaluated for inhibition of the human activated kallikrein enzyme in two formats of an assay employing a fluorogenic peptide substrate. In one assay format, the concentrations of reagents were as follows: 20 mM Tris pH 7.5, 1 mM EDTA, 150 mM sodium chloride, 0.1% PEG-400, 0.1% Triton X-100, 500 pM activated kallikrein enzyme, 300 uM Pro-Phe-Arg-7-amido-4-methylcoumarin (PFR-AMC) substrate. Prior to reaction initiation with substrate, enzyme and inhibitors were preincubated for 30 min at room temperature. After initiation with substrate, reactions were incubated for 10 min at room temperature and fluorescence emission at 460 nm from 380 nm excitation measured with a microplate reader. In another assay format, the concentrations of reagents were as follows: 20 mM Tris pH 7.5, 1 mM EDTA, 150 mM sodium chloride, 0.1% PEG-400, 0.1% Triton X-100, 5 pM activated kallikrein enzyme, 300 uM PFR-AMC substrate. Prior to reaction initiation with substrate, enzyme and inhibitors were preincubated for 30 min at room temperature. After initiation with substrate, reactions were incubated for 18 hr at room temperature and fluorescence emission at 460 nm from 380 nm excitation measured with a microplate reader.
Sequence of human activated kallikrein enzyme (P03952 391-638 limits assumed): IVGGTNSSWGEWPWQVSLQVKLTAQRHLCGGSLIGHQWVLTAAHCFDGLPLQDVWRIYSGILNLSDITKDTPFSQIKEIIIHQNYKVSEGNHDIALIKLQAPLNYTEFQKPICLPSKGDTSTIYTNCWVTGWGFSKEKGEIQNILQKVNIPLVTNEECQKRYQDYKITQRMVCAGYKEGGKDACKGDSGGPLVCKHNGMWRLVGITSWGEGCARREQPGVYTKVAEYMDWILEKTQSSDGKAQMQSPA
Sequence of human activated kallikrein enzyme (P03952 20-390 partner limits assumed): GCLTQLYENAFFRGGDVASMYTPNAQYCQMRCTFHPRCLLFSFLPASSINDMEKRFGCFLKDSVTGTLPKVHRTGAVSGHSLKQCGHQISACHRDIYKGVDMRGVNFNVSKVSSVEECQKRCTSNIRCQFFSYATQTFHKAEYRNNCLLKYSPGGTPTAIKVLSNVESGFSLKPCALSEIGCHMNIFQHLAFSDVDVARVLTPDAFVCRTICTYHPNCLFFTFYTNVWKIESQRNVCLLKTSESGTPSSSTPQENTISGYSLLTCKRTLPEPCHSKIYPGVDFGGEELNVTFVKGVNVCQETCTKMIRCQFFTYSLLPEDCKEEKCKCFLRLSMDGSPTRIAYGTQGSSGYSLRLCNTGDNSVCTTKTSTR
Table 6 provides the results of the assay in the format with 500 pM activated kallikrein assay.

For another assay, the target named is T1, plasma kallikrein (Homo sapiens, UniProt P03952).
T1 construct: from tissue; host or cells: sodium citrate collected human plasma (78% final)
T1 sequence (P03952 391-638 limits assumed): as the sequence (P03952 391-638 limits assumed) above
T1 sequence (P03952 20-390 partner limits assumed): as the sequence (P03952 20-390 partner limits assumed) above
Briefly: Neat human plasma assay: contact pathway-activated (FXIIa) plasma, PFR-AMC substrate. It counts as biochemical. Particulars: citrated human plasma (78% final), 10 nM human FXIIa, 100 μM PFR-AMC, room temperature. Here is the method: To analyze inhibition of plasma kallikrein in an ex vivo setting, the potency of compounds was measure in contact pathway-activated plasma assays. In a fluorogenic peptide substrate assay, test compounds dissolved in DMSO were added to sodium citrate collected human or rat plasma in a 96-well microplate. Alternatively, citrated plasma was collected from rats administered the compounds orally or by IV. 10 nM of human FXIIa (Enzyme Research Laboratories) diluted in pKal buffer (20 mM Tris-HCl, pH 7.5, 150 mM NaCl, 1 mM EDTA, 0.1% PEG-8000, and 0.1% Triton X-100) was added to the plasma, followed by the 100 μM of the profluorescent, synthetic plasma kallikrein substrate PFR-AMC (also diluted in pKal buffer). Final plasma concentration in the reaction was 78%. Fluorescence was immediately monitored by excitation/emission wavelengths of 360 nm/480 nm respectively over a period of 5 minutes in a microplate reader. The resulting linear increase in fluorescence emission (reflecting pKal proteolysis of PFR-AMC substrate) was fit to extract a proteolytic rate (fluorescent units over time), and this rate was subsequently plotted against compound inhibitor concentration. Resulting plots were fit to a standard 4-parameter IC50/IC90 equation to determine min/max values, IC50/90, and slope. All experimental steps were performed at room temperature.

As a reminder, the EC50 is the concentration giving half of the maximal effect. As usually defined, the IC90 is the point of the concentration-response curve where the effect stands at 90%. A higher IC90 goes with weaker potency. As to `Cc1ccnc([C@H]2C[C@@H]2C2=CS(=O)(=O)c3ccc(NCc4cn5cc(C6CC6)ccc5n4)cc3N2)n1` (racemic) [Example 55, rac-6-(((6-cyclopropylimidazo[1,2-a]pyridin-2 yl)methyl)amino)-3-((1S*,2S*)-2-(4-methylpyrimidin-2-yl)cyclopropyl)-4H-benzo[b][1,4]thiazine 1,1-dioxide], the EC50 in assay [1] is not above 0.001 µM. The same molecule displayed an IC90 against plasma kallikrein of 1.5 to 10 µM.

With `Cc1ccnc([C@H]2C[C@@H]2c2ccc3ncc(NCc4cn5cc(C6CC6)cc(N6CC(=O)N(C)C6=O)c5n4)cc3n2)n1` (racemic) [Example 14, rac-1-(6-cyclopropyl-2-(((6-((1S*,2S*)-2-(4-methylpyrimidin-2-yl)cyclopropyl)-1,5-naphthyridin-3-yl)amino)methyl)imidazo[1,2-a]pyridin-8-yl)-3-methylimidazolidine-2,4-dione], the EC50 in assay [1] fell in the range of 0.001 to 0.01 µM. In addition, the IC90 against plasma kallikrein was in the range of 1.5 to 10 µM. For `Cc1ccnc([C@H]2C[C@@H]2c2cc(N3CC4(COC4)C3)c3ccc(N[C@H](C)c4cn5cc(C6CC6)cc(N6CC(=O)N(C)C6=O)c5n4)cc3n2)n1` [Example 101, 1-(6-cyclopropyl-2-((R)-1-((2-((1S,2S)-2-(4-methylpyrimidin-2-yl)cyclopropyl)-4-(2-oxa-6-azaspiro[3.3]heptan-6-yl)quinolin-7-yl)amino)ethyl)imidazo[1,2-a]pyridin-8-yl)-3-methylimidazolidine-2,4-dione], in that order: not above 0.001 µM and not above 0.4 µM.

Take `Cc1ccnc([C@H]2C[C@@H]2c2ccc3ccc(NCc4cn5cc(C6CC6)cc(N6CC(=O)N(C)C6=O)c5n4)cc3n2)n1` (single isomer, unassigned) [Example 59]: the EC50 in assay [1] is not above 0.001 µM. Also, the IC90 against plasma kallikrein lay within 1.5 to 10 µM. For `Cc1ccnc([C@H]2C[C@@H]2c2cc(=O)c3cnc(NCc4cn5cc(C6CC6)cc(N6CC(=O)N(C)C6=O)c5n4)cc3[nH]2)n1` (racemic) [Example 10, rac-1-(6-cyclopropyl-2-(((2-((1S*,2S*)-2-(4-methylpyrimidin-2-yl)cyclopropyl)-4-oxo-1,4-dihydro-1,6-naphthyridin-7-yl)amino)methyl)imidazo[1,2-a]pyridin-8-yl)-3-methylimidazolidine-2,4-dione], in that order: not above 0.001 µM and not above 0.4 µM. For `Cc1ccnc([C@H]2C[C@@H]2c2cc(N(C)C)c3ccc(NCc4cn5cc(C6CC6)ccc5n4)cc3n2)n1` (racemic) [Example 1, rac-N^7-((6-cyclopropylimidazo[1,2-a]pyridin-2-yl)methyl)-N^4,N^4-dimethyl-2-((1S*,2S*)-2-(4-methylpyrimidin-2-yl)cyclopropyl)quinoline-4,7-diamine], in that order: not above 0.001 µM and 0.4 to 1.5 µM. For `Cc1cc(N2CC(=O)N(C)C2=O)c2nc(COc3ccc4c(N5CC6(COC6)C5)cc([C@H]5C[C@@H]5c5nccc(C)n5)nc4c3)cn2c1` [Example 96, 3-methyl-1-(6-methyl-2-(((2-((1S,2S)-2-(4-methylpyrimidin-2-yl)cyclopropyl)-4-(2-oxa-6-azaspiro[3.3]heptan-6-yl)quinolin-7-yl)oxy)methyl)imidazo[1,2-a]pyridin-8-yl)imidazolidine-2,4-dione], in that order: not above 0.001 µM and not above 0.4 µM. For the molecule `Cc1ccnc([C@H]2C[C@@H]2c2cc(C(C)(C)O)c3ccc(NCc4cn5cc(C6CC6)cc(N6CC(=O)N(C)C6=O)c5n4)cc3n2)n1` (racemic) [Example 95, rac-1-(6-cyclopropyl-2-(((4-(2-hydroxypropan-2-yl)-2-((1S*,2S*)-2-(4-methylpyrimidin-2-yl)cyclopropyl)quinolin-7-yl)amino)methyl)imidazo[1,2-a]pyridin-8-yl)-3-methylimidazolidine-2,4-dione], the EC50 in assay [1] is not above 0.001 µM. For the same molecule, the IC90 against plasma kallikrein is 0.4 to 1.5 µM. As for `Cc1ccnc([C@H]2C[C@@H]2C2=CS(=O)(=O)c3cnc(NCc4cn5cc(C6CC6)cc(N6CC(=O)N(C)C6=O)c5n4)cc3N2)n1` (racemic) [Example 79, rac-1-(6-cyclopropyl-2-(((2-((1S*,2S*)-2-(4-methylpyrimidin-2-yl)cyclopropyl)-4,4-dioxido-1H-pyrido[3,4-b][1,4]thiazin-7-yl)amino)methyl)imidazo[1,2-a]pyridin-8-yl)-3-methylimidazolidine-2,4-dione], the EC50 in assay [1] is not above 0.001 µM. The molecule also came in with an IC90 against plasma kallikrein not above 0.4 µM. For `Cc1ccnc([C@H]2C[C@@H]2C2=NS(=O)(=O)c3ccc(OCc4cn5cc(C6CC6)ccc5n4)cc3N2)n1` [Example 91, 6-((6-cyclopropylimidazo[1,2-a]pyridin-2-yl)methoxy)-3-((1S,2S)-2-(4-methylpyrimidin-2-yl)cyclopropyl)-4H-benzo[e][1,2,4]thiadiazine 1,1-dioxide], in that order: not above 0.001 µM and 1.5 to 10 µM. For `Cc1ccnc([C@H]2C[C@@H]2c2ncc3ccc(NCc4cn5cc(C6CC6)cc(N6CC(=O)N(C)C6=O)c5n4)cc3n2)n1` (racemic) [Example 60, rac-1-(6-cyclopropyl-2-(((2-((1S*,2S*)-2-(4-methylpyrimidin-2-yl)cyclopropyl)quinazolin-7-yl)amino)methyl)imidazo[1,2-a]pyridin-8-yl)-3-methylimidazolidine-2,4-dione], in that order: 0.001 to 0.01 µM and 10 to 22 µM. On to `Oc1cc([C@H]2C[C@@H]2c2cccc(Cl)c2)nc2cc(NCc3cn4cc(C5CC5)ccc4n3)ccc12` [Example 51, 2-((1S,2S)-2-(3-chlorophenyl)cyclopropyl)-7-(((6-cyclopropylimidazo[1,2-a]pyridin-2-yl)methyl)amino)quinolin-4-ol], for which the EC50 in assay [1] was 0.001 to 0.01 µM. Besides, the IC90 at plasma kallikrein was 1.5 to 10 µM. Take `Cc1ccnc([C@H]2C[C@@H]2c2cc(C#N)c3ccc(NCc4cn5cc(C6CC6)cc(N6CC(=O)N(C)C6=O)c5n4)cc3n2)n1` (racemic) [Example 73, rac-7-(((6-cyclopropyl-8-(3-methyl-2,4-dioxoimidazolidin-1-yl)imidazo[1,2-a]pyridin-2-yl)methyl)amino)-2-((1S*,2S*)-2-(4-methylpyrimidin-2-yl)cyclopropyl)quinoline-4-carbonitrile]: the EC50 in assay [1] is 0.01 to 0.1 µM. Take `COc1cc([C@H]2C[C@@H]2c2cccc(Cl)c2)nc2cc(N(Cc3cn4cc(C5CC5)ccc4n3)C(=O)OC(C)(C)C)ccc12` (racemic) [Example 47, rac-tert-butyl (2-((1S*,2S*)-2-(3-chlorophenyl)cyclopropyl)-4-methoxyquinolin-7-yl)((6-cyclopropylimidazo[1,2-a]pyridin-2-yl)methyl)carbamate]: the EC50 in assay [1] was more than 6.5 µM. `COCc1cc([C@H]2C[C@@H]2c2nccc(C)n2)nc2cc(NCc3cn4cc(C5CC5)cc(N5CC(=O)N(C)C5=O)c4n3)ccc12` (racemic) [Example 76, rac-1-(6-cyclopropyl-2-(((4-(methoxymethyl)-2-((1S*,2S*)-2-(4-methylpyrimidin-2-yl)cyclopropyl)quinolin-7-yl)amino)methyl)imidazo[1,2-a]pyridin-8-yl)-3-methylimidazolidine-2,4-dione]: in assay [1], the EC50 was not above 0.001 µM.

Take `Cc1ccnc([C@H]2C[C@@H]2c2ccc3cccc(NCc4cn5cc(C6CC6)cc(N6CC(=O)N(C)C6=O)c5n4)c3n2)n1` (racemic) [Example 70, rac-1-(6-cyclopropyl-2-(((2-((1S*,2S*)-2-(4-methylpyrimidin-2-yl)cyclopropyl)quinolin-8-yl)amino)methyl)imidazo[1,2-a]pyridin-8-yl)-3-methylimidazolidine-2,4-dione]: in assay [1], the EC50 was more than 6.5 µM. As for `Cc1ccnc([C@H]2C[C@@H]2c2nc3cc(NCc4cn5cc(C6CC6)ccc5n4)ccc3c(=O)[nH]2)n1` (relative stereo) [Example 3], in assay [1], the EC50 fell in the range of 0.001 to 0.01 µM. Same read-out and setting: as for `Clc1cccc([C@H]2C[C@@H]2c2nc3ncncc3n2Cc2cn3cc(C4CC4)ccc3n2)c1` [Example 44, 8-((1S,2S)-2-(3-chlorophenyl)cyclopropyl)-7-((6-cyclopropylimidazo[1,2-a]pyridin-2-yl)methyl)-7H-purine], the figure is more than 6.5 µM.

With `O=c1[nH]c([C@H]2C[C@@H]2c2cccc(Cl)c2)nc2cc(NCc3cn4cc(C5CC5)ccc4n3)ncc12` [Example 2, 2-((1S,2S)-2-(3-chlorophenyl)cyclopropyl)-7-(((6-cyclopropylimidazo[1,2-a]pyridin-2-yl)methyl)amino)pyrido[4,3-d]pyrimidin-4 (3H)-one], in assay [1], the EC50 was in the range of 0.01 to 0.1 µM.
